Experimental data from patent US12497396B2, “Nitrogen-containing heterocyclic derivatives, method therefor and application therefor as inhibitors of KRAS G12C for the treatment of cancers” (SHANGHAI HANSOH BIOMEDICAL CO., LTD., priority 2019, dated 2025).
Where two headings read alike, the source gives them in different places.

How the values were obtained:
[1] = system: Mia PaCa-2 cells (KRAS G12C mutant cell line); assay: Inhibition of Mia PaCa-2 cell proliferation (CellTiter-Glo, 72 h); format: cell-based, human
Description: (§1) As a preferred embodiment of the present disclosure, the detection method of NCI-H358 cell proliferation inhibitory activity and Mia PaCa-2 cell proliferation inhibitory activity is as follows: through cell culture, adding different concentrations of compound solutions to the cultured cells, continuing the culture for a period of time and measuring the cell proliferation; • further, the method of cell culture is: adjusting the cells to a suitable cell concentration with complete medium and spreading the cell suspension in well plates for culture; preferably, the culture conditions are 37° C., 5% CO2 incubator overnight; preferably, the cell suspension is spread in 96-well plates, 48-well plates, 24-well plates, 12-well plates or 6-well plates, more preferably 96-well plates; preferably, the suitable cell concentration is 1500-4000 cells/well, with 90 μL of cell suspension added to each well; • further, the compound solution is prepared with DMSO and may be further diluted with medium; preferably, the compound solution has a concentration gradient starting from 100 μM at 4-fold dilution, more preferably starting from 30 μM at 4-fold dilution, most preferably starting from 10 μM at 4-fold dilution; • further, the volume of the compound solution or solvent added to each well is 1-10 μL, preferably 10 μL; • further, after adding the compound solution, the conditions for continuing the culture are 37° C., 5% CO2 incubator; preferably, the culture time is 24-72 h, more preferably 72 h; • further, the method for measuring cell proliferation is MTT, CCK8, CellTiter-Glo; preferably the method is CellTiter-Glo; • further, the cell proliferation is read using a microplate reader, more preferably a BioTek Synergy H1 microplate reader.
(§2) When NCI-H358 or Mia PaCa-2 cells were cultured to the appropriate fusion level, the NCI-H358 or Mia PaCa-2 cells were collected, and the cells were adjusted to the appropriate cell concentration using a complete medium, and the cell suspension was spread in a 96-well plate, 90 μL per well, and placed in a 37° C., 5% CO2 incubator overnight; and compound solutions of different concentrations were prepared using DMSO and culture medium; and a solvent control was set, the compound solution was added to a 96-well plate, 10 μL per well, at 37° C. in a 5% CO2 incubator for 72 hours; CellTiter-Glo solution was added thereto and the mixture was mixed well by shaking, incubated for 10 min in the dark, and read by BioTek Synergy H1 microplate reader.
(§3) The luminescence signal values were used to calculate the inhibition rate, the concentration and the inhibition rate were fitted to a nonlinear regression curve using Graphpad Prism software, then the IC50 value was obtained.

[2] = system: NCI-H358 cells (KRAS G12C mutant cell line); assay: Inhibition of NCI-H358 cell proliferation (CellTiter-Glo, 72 h); format: cell-based, human
Description: as §1, §2, §3

human KRAS G12C protein = target: T1, human KRAS G12C protein (Homo sapiens, UniProt P01116, G12C); assay: Thermal shift: melting temperature of KRAS G12C protein; format: binding; conditions: for Tm (° C.): KRAS G12C protein 5.37 μM with compound 10 μM, 1 hour incubation; for ΔTm at 10 µM / ΔTm (° C.): compound 10 μM, Tm minus Tm of DMSO solvent control
T1 construct: purchased Beijing SinoBiological Co., Ltd. 12259-H07E2
Protocol: A solution containing […] (pH 7.5), 1 mM DTT, 5×SYPRO Orange and 150 mM NaCl was prepared as the experimental buffer, and a final concentration of 5.37 μM human KRAS G12C protein was added thereto. […] After incubating at room temperature in the dark for 1 hour, the PCR tube was put into the PCR instrument, QuantStudio Software v1.3 was opened, and the melting temperature of KRAS G12C protein in different treatment groups was detected by melt curve function (heating from 25° C. to 95° C., 0.03° C./s). The experimental data file of PCR instrument was imported into thermal shift software, and the melting temperature (Tm) of each treatment group was obtained, and the change value of melting temperature (Δ Tm) was obtained by subtracting the Tm of DMSO solvent control group.

IC50 ([1]; Homo sapiens) [nM] | IC50 ([2]; Homo sapiens) [nM] | Tm (° C.) (human KRAS G12C protein) [°C] | ΔTm at 10 µM (human KRAS G12C protein) [°C] | IC50 [1] [nM] | IC50 [2] [nM] | ΔTm (° C.) (human KRAS G12C protein) [°C] | Structure (SMILES)
60 | 40 | 60.2 | 11.6 |  |  |  | C=CC(=O)N1CCN(c2nc(=O)n(-c3c(SC)ccnc3C(C)C)c3nc(-c4c(O)cccc4F)c(F)cc23)[C@@H](C)C1 [Embodiment 60, 4-((S)-4-acryloyl-2-methylpiperazin-1-yl)-6-fluoro-7-(2-fluoro-6-hydroxyphenyl)-1-(2-isopropyl-4-(methylthio)pyridin-3-yl)pyrido[2,3-d]pyrimidin-2(1H)-one]
34 | 24 | 61.2 | 10.6 |  |  |  | C=CC(=O)N1CCN(c2nc(=O)n(-c3c(C)ccnc3C(C)C)c3nc(-c4c(F)cccc4SC)c(F)cc23)[C@@H](C)C1 [Embodiment 75, (S)-4-(4-acryloyl-2-methylpiperazin-1-yl)-6-fluoro-7-(2-fluoro-6-(methylthio)phenyl)-1-(2-isopropyl-4-methylpyridin-3-yl) pyrido[2,3-d]pyrimidin-2 (1H)-one]
120 | 117 | 60.4 | 9.8 |  |  |  | C=CC(=O)N1CCN(c2nc(=O)n(-c3c(C)ccnc3C(C)C)c3nc(-c4c(F)cccc4S(C)(=O)=O)c(F)cc23)[C@@H](C)C1 [Embodiment 77, (S)-4-(4-acryloyl-2-methylpiperazin-1-yl)-6-fluoro-1-(2-isopropyl-4-methylpyridin-3-yl)-7-(2-(methylsulfonyl-6-fluoro)phenyl) pyrido [2,3-d] pyrimidin-2 (1H)-one]
 |  | 59.0 |  | 82 | 89 | 8.4 | C=CC(=O)N1CCN(c2nc(=O)n(-c3c(C)ccnc3CC(C)C)c3nc(-c4c(F)cccc4SCC)c(F)cc23)[C@@H](C)C1 [Embodiment 118]
 |  | 61.5 |  | 41 | 14 | 10.9 | C=CC(=O)N1CCN(c2nc(=O)n(-c3c(SC)ccnc3C(C)C)c3nc(-c4c(O)cccc4F)c(Cl)cc23)[C@@H](C)C1 [Embodiment 130]
 |  | 61.2 |  | 47 | 48 | 11.7 | C=CC(=O)N1CCN(c2nc(=O)n(-c3c(SC)ccnc3C(C)C)c3nc(-c4c(F)cccc4SC)c(F)cc23)[C@@H](C)C1 [Embodiment 131]
 |  | 59.4 |  | 104 | 67 | 8.8 | C=CC(=O)N1CCN(c2nc(=O)n(-c3c(C)ccnc3C(C)C)c3nc(-c4ccccc4SC)c(F)cc23)[C@@H](C)C1 [Embodiment 138]
59 | 39 |  |  |  |  |  | C=CC(=O)N1CCN(c2nc(=O)n(-c3c(SC)ccnc3C(C)C)c3nc(-c4c(N)ccc(Cl)c4F)c(F)cc23)[C@@H](C)C1 [Embodiment 151, 4-((S)-4-acryloyl-2-methylpiperazin-1-yl)-7-(6-amino-3-chloro-2-fluorophenyl)-6-fluoro-1-(2-isopropyl-4-(methylthio)pyridin-3-yl)pyrido[2,3-d]pyrimidin-2(1H)-one]
91 | 45 | 60.0 | 11.4 |  |  |  | C=CC(=O)N1CCN(c2nc(=O)n(-c3c(SC)cc(C)nc3C(C)C)c3nc(-c4c(O)cccc4F)c(F)cc23)[C@@H](C)C1 [Embodiment 152, 4-((S)-4-acryloyl-2-methylpiperazin-1-yl)-6-fluoro-7-(2-fluoro-6-hydroxyphenyl)-1-(2-isopropyl-6-methyl-4-(methylthio)pyridin-3-yl) pyrido [2,3-d] pyrimidin-2 (1H)-one]
76 | 68 |  |  |  |  |  | C=CC(=O)N1CCN(c2nc(=O)n(-c3c(SC)ccnc3C(C)C)c3nc(-c4c(O)ccc(F)c4F)c(F)cc23)[C@@H](C)C1 [Embodiment 153, 4-((S)-4-acryloyl-2-methylpiperazin-1-yl)-7-(2,3-difluoro-6-hydroxyphenyl)-6-fluoro-1-(2-isopropyl-4-(methylthio)pyridin-3-yl) pyrido [2,3-d] pyrimidin-2 (1H)-one]
68 | 79 |  |  |  |  |  | C=CC(=O)N1CCN(c2nc(=O)n(-c3c(SC)ccnc3C(C)C)c3nc(-c4c(F)cccc4F)c(F)cc23)[C@@H](C)C1 [Embodiment 154, (S)-4-(4-acryloyl-2-methylpiperazin-1-yl)-7-(2,6-difluorophenyl)-6-fluoro-1-(2-isopropyl-4-(methylthio)pyridin-3-yl)pyrido[2,3-d]pyrimidin-2(1H)-one]
26 | 24 | 60.9 | 11.1 |  |  |  | C=CC(=O)N1CCN(c2nc(=O)n(-c3c(S(C)(=O)=O)ccnc3C(C)C)c3nc(-c4c(O)cccc4F)c(Cl)cc23)[C@@H](C)C1 [Embodiment 155, 4-((S)-4-acryloyl-2-methylpiperazin-1-yl)-6-chloro-7-(2-fluoro-6-hydroxyphenyl)-1-(2-isopropyl-4-(methylsulfonyl)pyridin-3-yl) pyrido [2,3-d] pyrimidin-2 (1H)-one]
 |  |  |  | 68 | 79 |  | C=CC(=O)N1CCN(c2nc(=O)n(-c3c(SC)ccnc3C(C)C)c3nc(-c4c(F)cccc4F)c(F)cc23)[C@@H](C)C1 [Embodiment 169, (S)-4-(4-acryloyl-2-methylpiperazin-1-yl)-7-(2,6-difluorophenyl)-6-fluoro-1-(2-isopropyl-4-(methylthio)pyridin-3-yl) pyrido [2,3-d] pyrimidin-2 (1H)-one]
16 | 32 |  |  |  |  |  | C=CC(=O)N1CCN(c2nc(=O)n(-c3c(SC)ccnc3C(C)C)c3nc(-c4c(N)c(Cl)cc(Cl)c4F)c(Cl)cc23)[C@@H](C)C1 [Embodiment 191, 4-((s)-4-acryloyl-2-methylpiperazine-1-yl)-7-(2-amino-3,5-dichloro-6-fluorophenyl)-6-chloro-1-(2-isopropyl-4-(methylthio)pyridin-3-yl) pyrido [2,3-d] pyrimidin-2 (1H)-one]
13 | 29 |  |  |  |  |  | C=CC(=O)N1CCN(c2nc(=O)n(-c3c([S+](C)[O-])ccnc3C(C)C)c3nc(-c4c(N)c(Cl)cc(Cl)c4F)c(Cl)cc23)[C@@H](C)C1 (stereo partly drawn) [Embodiment 192, 4-((S)-4-acryloyl-2-methylpiperazin-1-yl)-7-(2-amino-3,5-dichloro-6-fluorophenyl)-6-chloro-1-(2-isopropyl-4-(methylsulfinyl)pyridin-3-yl) pyrido [2,3-d] pyrimidin-2 (1H)-one]

Structure (SMILES) | IC50 ([1]; Homo sapiens) [nM] | IC50 ([2]; Homo sapiens) [nM] | Tm (° C.) (human KRAS G12C protein) [°C] | ΔTm at 10 µM (human KRAS G12C protein) [°C] | IC50 [1] [nM] | IC50 [2] [nM] | ΔTm (° C.) (human KRAS G12C protein) [°C]
C=CC(=O)N1CCN(c2nc(=O)n(-c3c(SC)ccnc3C(C)C)c3nc(-c4c(N)ccc(Cl)c4F)c(Cl)cc23)[C@@H](C)C1 [Embodiment 150, 4-((S)-4-acryloyl-2-methylpiperazin-1-yl)-7-(6-amino-3-chloro-2-fluorophenyl)-6-chloro-1-(2-isopropyl-4-(methylthio)pyridin-3-yl) pyrido [2,3-d] pyrimidin-2 (1H)-one] | 8.6 | 5.4 | 60.2 | 13.4 |  |  | 
C=CC(=O)N1C[C@H](C)N(c2nc(=O)n(-c3c(SC)ccnc3C(C)C)c3nc(-c4c(O)cccc4F)c(Cl)cc23)C[C@H]1C [Embodiment 166, 4-((2S, 5R)-4-acryloyl-2,5-dimethylpiperazin-1-yl)-6-chloro-7-(2-fluoro-6-hydroxyphenyl)-1-(2-isopropyl-4-(methylthio)pyridin-3-yl) pyrido [2,3-d] pyrimidin-2 (1H)-one] | 23 | 16 |  |  |  |  | 
